# Results as given in EP0102509A1, “Oxamid-acid derivatives, process for their preparation and therapeutical agents containing them” (BASF Aktiengesellschaft, priority 1982, dated 1984).
# System: passiven cutanen Anaphylaxie (PCA)
# Assay: Passive cutaneous anaphylaxis (PCA) in rats, oral administration
# Assay type: in vivo, Ratte
# Conditions: for Hemmung der PCA R.W.: relative potency after oral administration, comparison compound A = 1.00; for ED50: read-out: Hemmung der PCA ED 50 %
# Experimental: Die antiallergische Wirkung wurde an Ratten getestet. Zur Prüfung wurde das Modell der passiven cutanen Anaphylaxie (PCA) verwendet: • Narkotisierte männliche Ratten (100 - 140 g) werden durch intradermale Injektion (rasierte Rückenhaut) von 0,1 ml eines Ovalbumin-Antiserums sensibilisiert. Nach einer Sensibilisierüngsdauer von ca. 48 h erfolgt die Behandlung (orale Applikation) mit unterschiedlichen Dosierungen (10 Tiere/Dosis) der Prüfsubstanzen. 15 bzw. 20 min nach der Behandlung wird eine Antigen/Evansblau-Mischung (10 mg/kg Ovalbumin in 2%iger Evansblau-Lösung) den Versuchstieren intravenös injiziert. 30 min später werden die Tiere getötet, die Rückenhaut abgezogen und auf der inneren Oberfläche der Durchmesser der kreisförmigen Blaufärbung gemessen. Die Größe der Farbflecke unbehandelter Kontrolltiere ist standardisierbar. Antiallergisch wirksame Substanzen verkleinern dosisabhängig den Durchmesser der Farbflecke. Als ED-50 % wird die Dosis angegeben, die im Vergleich zu medikamentös unbehandelten Kontrolltieren den Durchmesser der Farbflecke um 50 % herabsetzt.
# [1] = oral administration, rat, dose that reduces the diameter of the dye spots by 50 % vs untreated controls
Molecule,Hemmung der PCA ED 50 % [1],Hemmung der PCA R.W.,Hemmung der PCA R.W. (listed as Bsp. 3),ED50 [1] [mg/kg],Hemmung der PCA R.W. (listed as Bsp. 2),"Antiallergische Wirkung (bis 100 mg/kg p.o., rat PCA)"
"N,N'-(1,3-Phenylen)-dioxamidsäure-2-butoxyethylester [Beispiel 3]",ca. 4.64 mg/kg,ca. 1.85,"1,85",,,
"CCOCCOC(=O)C(=O)Nc1cccc(NC(=O)C(=O)OCCOCC)c1 [Beispiel 2, N,N'-(1,3-Phenylen)-dioxamidsäure-2-ethoxyethylester]",,3.10,,2.77,"3,10",
"O=C(O)c1cc(=O)c2c(OCC(O)COc3cccc4oc(C(=O)O)cc(=O)c34)cccc2o1 [Cromolyne, reference compound]",,,,> 100,,unwirksam
